ChEMBL document CHEMBL6078694, “Divergent Metabolism of Cyclo-l-Trp-l-Leu in Streptomyces albofaciens by Hydroxylation and Nucleobase Transfer with Two Cytochrome P450 Enzymes” (J Nat Prod, 2024)
Activity calls are given as the source filed them.

Columns and labels:
Format in all cases: functional, organism-based
Settings in all cases: time 16-20 hrs
Bacillus subtilis = assay: Antibacterial activity against Bacillus subtilis NCLB3610 assessed as reduction in bacterial growth measured after 16 to 20 hrs by agar disk diffusion method
Pseudomonas aeruginosa = assay: Antibacterial activity against Pseudomonas aeruginosa ATCC 27853 assessed as reduction in bacterial growth measured after 16 to 20 hrs by agar disk diffusion method
Staphylococcus delphini = assay: Antibacterial activity against Staphylococcus delphini DSM 20771 assessed as reduction in bacterial growth measured after 16 to 20 hrs by agar disk diffusion method
Niallia circulans = assay: Antibacterial activity against Bacillus circulans NRRL B-380 assessed as reduction in bacterial growth measured after 16 to 20 hrs by agar disk diffusion method
Escherichia coli = assay: Antibacterial activity against Escherichia coli ATCC 35218 assessed as reduction in bacterial growth measured after 16 to 20 hrs by agar disk diffusion method
Enterococcus faecalis = assay: Antibacterial activity against Enterococcus faecalis DSM 2570 assessed as reduction in bacterial growth measured after 16 to 20 hrs by agar disk diffusion method
Klebsiella pneumoniae = assay: Antibacterial activity against Klebsiella pneumoniae DSM 26371 assessed as reduction in bacterial growth measured after 16 to 20 hrs by agar disk diffusion method
Staphylococcus aureus = assay: Antibacterial activity against Staphylococcus aureus ATCC29213 assessed as reduction in bacterial growth measured after 16 to 20 hrs by agar disk diffusion method

Measured: Activity

CC(C)C[C@@H]1NC(=O)[C@@H]2C[C@]3(c4nc5c(=O)[nH]c(N)nc5[nH]4)c4ccccc4N[C@@H]3N2C1=O
inactive: Bacillus subtilis | Pseudomonas aeruginosa | Staphylococcus delphini | Niallia circulans | Escherichia coli | Enterococcus faecalis | Klebsiella pneumoniae | Staphylococcus aureus

CC(C)C[C@@H]1NC(=O)[C@H]([C@@H](O)c2c[nH]c3ccccc23)NC1=O
inactive: Bacillus subtilis | Pseudomonas aeruginosa | Staphylococcus delphini | Niallia circulans | Escherichia coli | Enterococcus faecalis | Klebsiella pneumoniae | Staphylococcus aureus
